Measurements taken from PubChem BioAssay AID1963429 (Molecular Pharmacology Branch, DTP, NCI, 2024).
“And” between values parts separate entries of the source, which are not always exact repeats. Equal values may be shown once.

Test system: 126254-015-R-J1-PDC complex spheroid growth, % test/control
Assay: Anticancer human tumor 126254-015-R-J1-PDC patient-derived soft tissue sarcoma cell line growth inhibition [Asc]
Settings: for viability, T/C: stronger effect = lower value; active = viability on the fitted dose curve at most 10% of control; inactive = the rest
How it was run: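 Stromal components (HUVEC and hMSC) are co-assembled with the cancer cells into multicellular spheroids. Drugs are then added singly or paired, at concentrations falling by half-log increments from a clinically achievable maximum, capped at 10 microM without known Cmax.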
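Also: spheroids exposed to compound for seven days.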
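For viability, T/C in this document: 100% = DMSO vehicle control wells.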

CCN1CCN(Cc2ccc(Nc3ncc(F)c(-c4cc(F)c5nc(C)n(C(C)C)c5c4)n3)nc2)CC1 + Cc1c(S(C)(=O)=O)c(-c2cc(F)cc(N3CCN(c4ccc(NS(=O)(=O)c5ccc(NC(CCN6CCC(C(=O)OCCCP(=O)(O)O)CC6)CSc6ccccc6)c(S(=O)(=O)C(F)(F)F)c5)cc4)CC3)c2)c(-c2ccc(Cl)cc2)n1C(C)C
> 1000 nM: IC50 (curve of first compound, second compound 0.1 µM) | IC50 (curve of first compound, second compound 0.316 µM) | IC50 (curve of first compound, second compound 1 µM) | IC50 (curve of first compound, second compound 3.16 µM) | IC50 (curve of first compound, second compound 10 µM)
inactive: viability, T/C (second compound 0.1 µM, first compound 0.00316 µM) 99.3% | viability, T/C (second compound 0.1 µM, first compound 0.01 µM) 95.5% | viability, T/C (second compound 0.1 µM, first compound 0.0316 µM) 88.4% | viability, T/C (second compound 0.1 µM, first compound 0.1 µM) 90.1% | viability, T/C (second compound 0.1 µM, first compound 0.316 µM) 110% | viability, T/C (second compound 0.1 µM, first compound 1 µM) 98.4% | viability, T/C (second compound 0.316 µM, first compound 0.00316 µM) 87.8% | viability, T/C (second compound 0.316 µM, first compound 0.01 µM) 89.1% | viability, T/C (second compound 0.316 µM, first compound 0.0316 µM) 84.4% | viability, T/C (second compound 0.316 µM, first compound 0.1 µM) 95.5% | viability, T/C (second compound 0.316 µM, first compound 0.316 µM) 90.3% | viability, T/C (second compound 0.316 µM, first compound 1 µM) 87% | viability, T/C (second compound 1 µM, first compound 0.00316 µM) 86.5% | viability, T/C (second compound 1 µM, first compound 0.01 µM) 81.7% | viability, T/C (second compound 1 µM, first compound 0.0316 µM) 93.3% | viability, T/C (second compound 1 µM, first compound 0.1 µM) 86.4% | viability, T/C (second compound 1 µM, first compound 0.316 µM) 97.9% | viability, T/C (second compound 1 µM, first compound 1 µM) 73.3% | viability, T/C (second compound 3.16 µM, first compound 0.00316 µM) 96.6% | viability, T/C (second compound 3.16 µM, first compound 0.01 µM) 87.7% | viability, T/C (second compound 3.16 µM, first compound 0.0316 µM) 90.1% | viability, T/C (second compound 3.16 µM, first compound 0.1 µM) 72.4% | viability, T/C (second compound 3.16 µM, first compound 0.316 µM) 86.6% | viability, T/C (second compound 3.16 µM, first compound 1 µM) 87.3% | viability, T/C (second compound 10 µM, first compound 0.00316 µM) 86.5% | viability, T/C (second compound 10 µM, first compound 0.01 µM) 90.4% | viability, T/C (second compound 10 µM, first compound 0.0316 µM) 86.1% | viability, T/C (second compound 10 µM, first compound 0.1 µM) 98% | viability, T/C (second compound 10 µM, first compound 0.316 µM) 87.5% | viability, T/C (second compound 10 µM, first compound 1 µM) 73.8%

NC(=O)C(=Cn1cnc(-c2cc(C(F)(F)F)cc(C(F)(F)F)c2)n1)c1cncnc1
49.9 nM and 45.6 nM and 121 nM: IC50 (curve of compound)
inactive: viability, T/C (compound 0.000949 µM) 104% and 107% and 110% | viability, T/C (compound 0.003 µM) 92.3% and 94% and 104% | viability, T/C (compound 0.00949 µM) 86.1% and 82.2% and 93.2% | viability, T/C (compound 0.03 µM) 63.4% and 58.5% and 84.6% | viability, T/C (compound 0.0949 µM) 33.2% and 34.4% and 57.5% | viability, T/C (compound 0.3 µM) 13.9% and 15.5% and 19.8%

O=C(c1ccc(F)c(F)c1Nc1ccc(I)cc1F)N1CC(O)([C@@H]2CCCCN2)C1
699 nM and 755 nM and > 1000 nM: IC50 (curve of compound)
inactive: viability, T/C (compound 0.00316 µM) 103% and 94.5% and 96.1% | viability, T/C (compound 0.01 µM) 109% (2×) and 105% | viability, T/C (compound 0.0316 µM) 102% (2×) and 93.1% | viability, T/C (compound 0.1 µM) 91.6% and 90.3% and 101% | viability, T/C (compound 0.316 µM) 66.5% and 70.8% and 78.6% | viability, T/C (compound 1 µM) 42.6% and 42.9% and 55.1%
